Experimental data from paper PMC5578959, “Selective LRRK2 kinase inhibition reduces phosphorylation of endogenous Rab10 and Rab12 in human peripheral mononuclear blood cells” (Scientific Reports, 2017).
Several values for one entry are separate records, joined by “and”; a condition that tells them apart may be missing. Equal entries are not always repeated.

Tests used:
Assay in all cases: KiNativ profiling in human PBMCs
Format in all cases: binding
[1] = system: T1, FGR; details: Activation Loop
T1 construct: purchased ActivX Technologies (KiNativ)
Procedure, shortened: (§1)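 Selectivity across the kinome was examined with KiNativ after exposing live peripheral blood mononuclear cells to compound at 1 µM and at 0.1 µM.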

[2] = system: T2, MSK2 domain1; details: Lys2
T2 construct: MSK2 domain1; purchased ActivX Technologies (KiNativ)
Procedure, shortened: as §1

[3] = system: T3, RSK3 domain1; details: Lys2
T3 construct: RSK3 domain1; purchased ActivX Technologies (KiNativ)
Procedure, shortened: as §1

[4] = system: T4, JAK1 domain1; details: Other
T4 construct: JAK1 domain1; purchased ActivX Technologies (KiNativ)
Procedure, shortened: as §1

[5] = system: T5, CDK2
T5 construct: purchased ActivX Technologies (KiNativ)
Procedure, shortened: as §1

[6] = system: T6, LRRK2; details: Lys2
T6 construct: purchased ActivX Technologies (KiNativ)
Procedure, shortened: as §1

[7] = system: MAP2K1,MAP2K2; details: Lys2
Procedure, shortened: as §1

[8] = system: T7, Erk5; details: Lys2
T7 construct: purchased ActivX Technologies (KiNativ)
Procedure, shortened: as §1

[9] = system: T8, HCK; details: Activation Loop
T8 construct: purchased ActivX Technologies (KiNativ)
Procedure, shortened: as §1

[10] = system: T9, MAST3; details: Lys2
T9 construct: purchased ActivX Technologies (KiNativ)
Procedure, shortened: as §1

[11] = system: T10, PI4KB; details: ATP
T10 construct: purchased ActivX Technologies (KiNativ)
Procedure, shortened: as §1

[12] = system: Wnk1,Wnk2,Wnk4; details: Activation Loop
Procedure, shortened: as §1

[13] = system: T11, MAP2K5; details: Lys2
T11 construct: purchased ActivX Technologies (KiNativ)
Procedure, shortened: as §1

[14] = system: T12, LKB1; details: Lys2
T12 construct: purchased ActivX Technologies (KiNativ)
Procedure, shortened: as §1

[15] = system: T13, RIPK3; details: Lys2
T13 construct: purchased ActivX Technologies (KiNativ)
Procedure, shortened: as §1

[16] = system: T14, FER
T14 construct: purchased ActivX Technologies (KiNativ)
Procedure, shortened: as §1

[17] = system: T15, ZAK; details: Lys1
T15 construct: purchased ActivX Technologies (KiNativ)
Procedure, shortened: as §1

[18] = system: T16, NEK9
T16 construct: purchased ActivX Technologies (KiNativ)
Procedure, shortened: as §1

[19] = system: T17, PKN1; details: Lys1
T17 construct: purchased ActivX Technologies (KiNativ)
Procedure, shortened: as §1

[20] = system: T18, CaMK1a; details: Lys1
T18 construct: purchased ActivX Technologies (KiNativ)
Procedure, shortened: as §1

[21] = system: T19, p38a
T19 construct: purchased ActivX Technologies (KiNativ)
Procedure, shortened: as §1

[22] = system: TAO1,TAO3; details: Lys2
Procedure, shortened: as §1

[23] = system: T20, GSK3B; details: Lys2
T20 construct: purchased ActivX Technologies (KiNativ)
Procedure, shortened: as §1

[24] = system: T21, NDR2
T21 construct: purchased ActivX Technologies (KiNativ)
Procedure, shortened: as §1

[25] = system: p38d,p38g; details: Lys2
Procedure, shortened: as §1

[26] = system: MARK1,MARK2; details: Lys1
Procedure, shortened: as §1

[27] = system: T22, ULK1; details: Lys2
T22 construct: purchased ActivX Technologies (KiNativ)
Procedure, shortened: as §1

[28] = system: T23, BRAF; details: Lys2
T23 construct: purchased ActivX Technologies (KiNativ)
Procedure, shortened: as §1

[29] = system: T24, MAP3K5; details: Lys2
T24 construct: purchased ActivX Technologies (KiNativ)
Procedure, shortened: as §1

[30] = system: T25, TLK2; details: Lys2
T25 construct: purchased ActivX Technologies (KiNativ)
Procedure, shortened: as §1

[31] = system: AKT2,AKT3; details: ATP Loop
Procedure, shortened: as §1

[32] = system: T26, NEK4; details: Lys2
T26 construct: purchased ActivX Technologies (KiNativ)
Procedure, shortened: as §1

[33] = system: T27, MLKL; details: Lys1
T27 construct: purchased ActivX Technologies (KiNativ)
Procedure, shortened: as §1

[34] = system: MARK2,MARK3; details: Lys2
Procedure, shortened: as §1

[35] = system: T28, CaMK2d; details: Lys1
T28 construct: purchased ActivX Technologies (KiNativ)
Procedure, shortened: as §1

[36] = system: T29, PIP5K3; details: ATP
T29 construct: purchased ActivX Technologies (KiNativ)
Procedure, shortened: as §1

[37] = system: T30, MARK3; details: Lys1
T30 construct: purchased ActivX Technologies (KiNativ)
Procedure, shortened: as §1

Cc1cccc(-c2cc(Nc3ccn(C)n3)nc3[nH]cc(C#N)c23)c1 [Lu AF58786]
Inhibition ([1]; 0.1µM): 11.4%
Inhibition ([1]; 1µM): 5.2%
Inhibition ([2]; 0.1µM): 28.3%
Inhibition ([2]; 1µM): 19.0%
Inhibition ([3]; 0.1µM): 12.9%
Inhibition ([3]; 1µM): 26.9%
Inhibition ([4]; 0.1 µM): 19.3%
Inhibition ([4]; 1 µM): 55.0%
Inhibition ([5]; 0.1µM, Lys1): 5.0%
Inhibition ([5]; 0.1µM, Lys2): 7.1%
Inhibition ([5]; 1µM, Lys1): 9.2%
Inhibition ([5]; 1µM, Lys2): 5.2%
Inhibition ([6]; 0.1 µM): 83% and 83.4%
Inhibition ([6]; 1 µM): 93% and 93.4%
Inhibition ([7]; 0.1 µM, DVKPSNILVNSR): 4.0%
Inhibition ([7]; 1 µM, DVKPSNILVNSR): 1.8%
Inhibition ([7]; 1 µM, IMHRDVKPSNILVNSR): 14.1%
Inhibition ([8]; 0.1µM): 2.1%
Inhibition ([8]; 1µM): 10.9%
Inhibition ([9]; 0.1µM): -0.451%
Inhibition ([9]; 1µM): -12.8%
Inhibition ([10]; 0.1µM): 11.5%
Inhibition ([10]; 1µM): 0.2%
Inhibition ([11]; 0.1µM): 15.3%
Inhibition ([11]; 1µM): 6.2%
Inhibition ([12]; 0.1µM): 0.9%
Inhibition ([12]; 1µM): -6.6%
Inhibition ([13]; 0.1µM): -0.318%
Inhibition ([13]; 1µM): 17.4%
Inhibition ([14]; 0.1µM): 6.1%
Inhibition ([14]; 1µM): 3.9%
Inhibition ([15]; 0.1µM): 2.4%
Inhibition ([15]; 1µM): -10.9%
Inhibition ([16]; 0.1µM, Activation Loop): -5.4%
Inhibition ([16]; 0.1µM, Lys1): 1.7%
Inhibition ([16]; 1µM, Activation Loop): -16.1%
Inhibition ([16]; 1µM, Lys1): 5.0%
Inhibition ([17]; 0.1µM): 18.8%
Inhibition ([17]; 1µM): 11.6%
Inhibition ([18]; 0.1µM, Lys1): 8.4%
Inhibition ([18]; 0.1µM, Lys2): 12.6%
Inhibition ([18]; 1µM, Lys1): -0.0314%
Inhibition ([18]; 1µM, Lys2): -3.7%
Inhibition ([19]; 0.1µM): 18.4%
Inhibition ([19]; 1µM): 13.6%
Inhibition ([20]; 0.1µM): 11.0%
Inhibition ([20]; 1µM): -3.0%
Inhibition ([21]; 0.1µM, Lys2): 0.7%
Inhibition ([21]; 0.1 µM, Other): -1.7%
Inhibition ([21]; 1µM, Lys2): -4.6%
Inhibition ([21]; 1 µM, Other): -7.7%
Inhibition ([22]; 0.1µM): 27.6%
Inhibition ([22]; 1µM): 15.9%
Inhibition ([23]; 0.1µM): 9.9%
Inhibition ([23]; 1µM): 21.4%
Inhibition ([24]; 0.1µM, Lys1): -14.6%
Inhibition ([24]; 0.1µM, Lys2): 10.7%
Inhibition ([24]; 1µM, Lys1): -18.5%
Inhibition ([24]; 1µM, Lys2): 1.3%
Inhibition ([25]; 0.1µM): 7.1%
Inhibition ([25]; 1µM): -0.541%
Inhibition ([26]; 0.1µM): 16.5%
Inhibition ([26]; 1µM): 7.1%
Inhibition ([27]; 0.1µM): -3.7%
Inhibition ([27]; 1µM): -7.0%
Inhibition ([28]; 0.1µM): 6.1%
Inhibition ([28]; 1µM): -13.8%
Inhibition ([29]; 0.1µM): 4.3%
Inhibition ([29]; 1µM): -3.2%
Inhibition ([30]; 0.1µM): 13.3%
Inhibition ([30]; 1µM): -1.2%
Inhibition ([31]; 0.1µM): -0.7%
Inhibition ([31]; 1µM): -7.3%
Inhibition ([32]; 0.1µM): -32.0%
Inhibition ([32]; 1µM): -14.9%
Inhibition ([33]; 0.1µM): -7.9%
Inhibition ([33]; 1µM): -7.5%
Inhibition ([34]; 0.1µM): -38.4%
Inhibition ([34]; 1µM): -36.2%
Inhibition ([35]; 0.1µM): 3.9%
Inhibition ([35]; 1µM): -3.2%
Inhibition ([36]; 0.1µM): -2.2%
Inhibition ([36]; 1µM): 4.2%
Inhibition ([37]; 0.1µM): 2.1%
Inhibition ([37]; 1µM): 3.2%
